One experiment concerns the target T1, Aminopeptidase N (Plasmodium falciparum FcB1/Columbia, UniProt O96935).
T1 sequence (O96935 whole entry): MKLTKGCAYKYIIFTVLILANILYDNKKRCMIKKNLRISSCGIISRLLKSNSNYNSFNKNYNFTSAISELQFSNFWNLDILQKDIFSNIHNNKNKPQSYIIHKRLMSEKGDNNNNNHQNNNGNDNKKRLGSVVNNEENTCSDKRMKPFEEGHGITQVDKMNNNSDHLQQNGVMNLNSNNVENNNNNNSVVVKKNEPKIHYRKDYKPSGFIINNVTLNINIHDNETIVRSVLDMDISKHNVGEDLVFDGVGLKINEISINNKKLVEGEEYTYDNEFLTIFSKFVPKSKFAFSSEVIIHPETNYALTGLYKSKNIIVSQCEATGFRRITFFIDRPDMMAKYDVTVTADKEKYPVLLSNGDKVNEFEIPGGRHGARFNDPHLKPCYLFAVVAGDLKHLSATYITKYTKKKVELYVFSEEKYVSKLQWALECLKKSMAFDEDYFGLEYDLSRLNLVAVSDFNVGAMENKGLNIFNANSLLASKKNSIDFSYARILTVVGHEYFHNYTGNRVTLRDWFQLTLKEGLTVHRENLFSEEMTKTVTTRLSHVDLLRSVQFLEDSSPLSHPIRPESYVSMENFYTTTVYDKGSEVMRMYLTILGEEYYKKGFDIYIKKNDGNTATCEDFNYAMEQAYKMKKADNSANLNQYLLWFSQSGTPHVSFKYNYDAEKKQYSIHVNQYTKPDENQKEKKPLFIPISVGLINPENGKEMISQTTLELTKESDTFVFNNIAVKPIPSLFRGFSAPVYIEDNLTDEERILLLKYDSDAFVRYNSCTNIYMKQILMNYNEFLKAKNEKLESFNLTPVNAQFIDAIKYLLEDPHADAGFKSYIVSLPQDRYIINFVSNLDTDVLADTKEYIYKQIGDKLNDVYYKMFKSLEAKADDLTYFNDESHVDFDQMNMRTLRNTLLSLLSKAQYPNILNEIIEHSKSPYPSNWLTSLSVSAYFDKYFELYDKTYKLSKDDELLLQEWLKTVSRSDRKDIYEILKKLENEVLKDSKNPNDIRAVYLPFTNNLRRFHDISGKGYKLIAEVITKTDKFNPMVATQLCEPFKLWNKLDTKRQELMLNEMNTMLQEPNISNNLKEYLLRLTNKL
Nature of the experiment: P. falciparum M1AAP inhibitors, biochemical, fluorogenic H-Leu-NHMec substrate, 1536-well (AID 1445). Also noted: species or system Plasmodium falciparum 3D7, 3D7.

For experiment [1], the target named is Glucose-6-phosphate 1-dehydrogenase (Homo sapiens, UniProt P11413). Nature of the experiment: human G6PD enzyme inhibitors, dose response, selectivity assay for P. falciparum G6PD inhibitor project, biochemical, fluorescence (AID 504792). The experiment is classed as functional.
The next experiment concerns the target Genome polyprotein (dengue virus type 2, UniProt P29990). Nature of the experiment: Dengue-2 NS5 methyltransferase inhibitors, primary screen, biochemical, confirmation dose response (AID 588689). In kind it is functional.
Experiment [2] addresses T2, Cytochrome P450 3A4 (Homo sapiens, UniProt P08684). To be noted: Potency.
Experiment [3] can be described thus: THP-1 cell cytotoxicity, dose response, cytotoxicity control for non-replicating M. tuberculosis project (AID 489025). The experiment is classed as functional.
Experiment [4] has as its target T3, Ubiquitin-conjugating enzyme E2 N (Homo sapiens, UniProt P61088).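 Also: Dose-response confirmation in a TR-FRET assay detecting UBC13-driven polyubiquitin chain formation, inhibition measured.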
T3 sequence (P61088 whole entry): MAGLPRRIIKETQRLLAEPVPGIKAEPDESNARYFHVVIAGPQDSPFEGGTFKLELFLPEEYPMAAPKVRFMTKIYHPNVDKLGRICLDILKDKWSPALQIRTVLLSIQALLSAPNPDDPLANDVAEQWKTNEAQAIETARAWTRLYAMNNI
In kind it is functional.

Experiment [5] can be described thus: cytotoxicity in HEK-293T cells, dose response, cytotoxicity control for BCR NF-kB inhibitor project, luminescence, B-cell screen hits (AID 489021).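 Also: HEK-293T cells carrying an NF-kB luciferase reporter; cells exposed to compound for about 14 hours before viability readout.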 In kind it is functional, cell-based.
Experiment [6] deals with Streptococcus sp. 'group A'. Nature of the experiment: growth inhibition of control SK(-) GAS strain, dose response, counter-screen for streptokinase expression inhibitor project, luminescence, kanamycin, BacTiterGlo, confirmation (AID 1900). The experiment is classed as functional, organism-based.
For a further experiment, the system named is Streptococcus. The experiment is described as follows: Group A Streptococcus viability loss, dose response, counter-screen for streptokinase expression inhibitor project, luminescence, BacTiterGlo (AID 1915).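 Also: potency for reduction of bacterial viability or growth.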 In kind it is functional, organism-based. Background: Counterscreens check selectivity or assay interference.
The target of a further experiment is T4, Streptokinase A (Streptococcus pyogenes serotype M1, UniProt P10520).
T4 sequence (P10520 whole entry): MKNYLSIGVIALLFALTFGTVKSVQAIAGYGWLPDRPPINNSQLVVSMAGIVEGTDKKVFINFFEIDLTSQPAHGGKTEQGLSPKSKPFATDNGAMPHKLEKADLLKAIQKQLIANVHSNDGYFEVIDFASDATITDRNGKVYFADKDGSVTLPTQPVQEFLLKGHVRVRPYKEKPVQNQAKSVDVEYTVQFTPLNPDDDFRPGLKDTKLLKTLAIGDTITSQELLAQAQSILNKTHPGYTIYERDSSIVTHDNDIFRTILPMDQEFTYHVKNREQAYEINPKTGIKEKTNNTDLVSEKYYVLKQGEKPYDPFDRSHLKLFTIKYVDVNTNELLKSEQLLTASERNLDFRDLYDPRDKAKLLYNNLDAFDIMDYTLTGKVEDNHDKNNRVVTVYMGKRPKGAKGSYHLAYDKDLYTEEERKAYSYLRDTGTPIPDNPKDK
The experiment is described as follows: S. pyogenes streptokinase expression inhibitors, potency, dose response, plasminogen activation absorbance, OD405 (AID 1914).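 Also: secreted streptokinase activity via plasminogen activation per viability signal from cell pellet.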 The experiment is classed as functional, Streptococcus pyogenes M1 GAS.

Experiment [7] has as its target T5, High affinity choline transporter 1 (Homo sapiens, UniProt Q9GZV3).
T5 sequence (Q9GZV3 whole entry): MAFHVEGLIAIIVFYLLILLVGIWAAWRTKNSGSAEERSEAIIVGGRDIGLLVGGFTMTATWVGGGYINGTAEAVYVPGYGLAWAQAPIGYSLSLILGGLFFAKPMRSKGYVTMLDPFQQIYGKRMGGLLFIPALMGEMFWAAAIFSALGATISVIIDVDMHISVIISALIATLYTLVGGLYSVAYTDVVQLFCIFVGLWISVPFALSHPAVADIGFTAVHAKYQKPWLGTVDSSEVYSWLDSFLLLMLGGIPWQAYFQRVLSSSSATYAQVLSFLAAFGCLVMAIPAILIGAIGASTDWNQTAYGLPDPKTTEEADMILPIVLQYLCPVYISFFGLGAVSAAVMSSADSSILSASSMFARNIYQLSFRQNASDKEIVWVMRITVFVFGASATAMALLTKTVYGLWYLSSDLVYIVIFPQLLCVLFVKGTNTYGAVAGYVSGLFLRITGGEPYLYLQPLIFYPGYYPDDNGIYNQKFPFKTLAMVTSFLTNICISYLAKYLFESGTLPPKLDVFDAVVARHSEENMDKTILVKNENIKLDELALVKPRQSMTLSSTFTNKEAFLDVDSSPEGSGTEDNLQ
The experiment is described as follows: CHT inhibitors, dose response, cell-based, 5-point CRC, membrane potential dye (AID 504840). In kind it is functional.

The next experiment can be described thus: cells. In kind it is functional.
Experiment [8] has as its target T6, RNA-binding protein pos-1 (Caenorhabditis elegans, UniProt G5EF15).
T6 sequence (G5EF15 whole entry): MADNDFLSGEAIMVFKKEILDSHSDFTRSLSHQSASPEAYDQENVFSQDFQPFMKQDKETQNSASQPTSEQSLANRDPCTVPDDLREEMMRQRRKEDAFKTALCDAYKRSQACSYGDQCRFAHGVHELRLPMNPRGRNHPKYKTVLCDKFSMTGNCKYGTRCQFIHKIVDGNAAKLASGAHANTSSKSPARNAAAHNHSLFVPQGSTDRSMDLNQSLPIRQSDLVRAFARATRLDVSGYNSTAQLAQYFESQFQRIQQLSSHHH
Nature of the experiment: inhibitors of POS-1/mex-3 RNA binding, dose response, biochemical, fluorescence polarization (AID 1964).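 Also: purified POS-1 fused to maltose binding protein made in E. coli; potency of compounds blocking POS-1 binding to fluorescent RNA.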 A general note: Polarisation of emitted light reports the rotation of a fluorescent probe.

A further experiment deals with Large T antigen (Simian virus 40, UniProt P03070). In kind it is functional, Betapolyomavirus macacae.
For experiment [9], the target named is T7, Zinc finger protein mex-5 (Caenorhabditis elegans, UniProt Q9XUB2).
T7 sequence (Q9XUB2 whole entry): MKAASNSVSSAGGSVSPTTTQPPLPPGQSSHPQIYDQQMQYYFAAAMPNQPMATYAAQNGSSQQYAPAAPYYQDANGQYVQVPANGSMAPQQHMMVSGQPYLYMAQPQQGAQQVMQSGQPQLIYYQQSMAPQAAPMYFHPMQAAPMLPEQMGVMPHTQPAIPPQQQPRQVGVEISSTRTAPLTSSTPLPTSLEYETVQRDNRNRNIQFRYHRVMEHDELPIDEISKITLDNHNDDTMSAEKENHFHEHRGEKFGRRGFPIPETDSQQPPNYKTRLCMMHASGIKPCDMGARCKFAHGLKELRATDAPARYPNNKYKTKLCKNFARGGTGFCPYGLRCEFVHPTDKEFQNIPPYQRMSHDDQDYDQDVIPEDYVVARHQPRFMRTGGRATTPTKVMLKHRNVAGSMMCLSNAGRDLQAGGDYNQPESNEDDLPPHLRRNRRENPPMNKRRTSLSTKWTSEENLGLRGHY
The experiment is described as follows: MEX-5/TCR-2 RNA interaction inhibitors, dose response, biochemical, C. elegans, fluorescence polarization (AID 1960).

For experiment [10], the target named is T2, Cytochrome P450 3A4.

Activity calls are given as the source filed them.

Genome polyprotein, sequence (P29990 2492-3391 limits assumed): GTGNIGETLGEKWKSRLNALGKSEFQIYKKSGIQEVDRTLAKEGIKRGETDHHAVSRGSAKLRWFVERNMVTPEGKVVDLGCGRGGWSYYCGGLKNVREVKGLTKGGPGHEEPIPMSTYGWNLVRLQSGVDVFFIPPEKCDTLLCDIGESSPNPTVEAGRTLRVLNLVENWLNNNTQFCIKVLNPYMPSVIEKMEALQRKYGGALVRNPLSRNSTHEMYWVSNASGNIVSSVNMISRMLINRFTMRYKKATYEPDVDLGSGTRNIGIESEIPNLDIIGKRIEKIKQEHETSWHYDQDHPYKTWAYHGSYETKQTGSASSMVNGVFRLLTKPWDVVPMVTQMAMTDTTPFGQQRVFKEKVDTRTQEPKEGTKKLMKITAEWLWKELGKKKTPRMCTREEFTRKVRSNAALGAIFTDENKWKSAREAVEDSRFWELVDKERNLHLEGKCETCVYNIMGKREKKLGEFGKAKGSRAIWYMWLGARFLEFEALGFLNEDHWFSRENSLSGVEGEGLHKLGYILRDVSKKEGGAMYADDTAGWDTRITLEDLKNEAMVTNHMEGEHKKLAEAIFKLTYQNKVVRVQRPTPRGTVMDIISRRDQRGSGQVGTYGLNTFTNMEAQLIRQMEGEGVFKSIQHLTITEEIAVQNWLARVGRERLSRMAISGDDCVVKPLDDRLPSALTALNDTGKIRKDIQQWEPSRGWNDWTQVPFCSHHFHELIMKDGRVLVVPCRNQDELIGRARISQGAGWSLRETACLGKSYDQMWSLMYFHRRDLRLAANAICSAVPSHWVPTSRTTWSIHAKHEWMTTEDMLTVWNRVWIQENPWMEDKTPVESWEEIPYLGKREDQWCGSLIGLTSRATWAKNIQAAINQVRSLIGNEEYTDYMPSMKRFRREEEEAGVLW
T2 sequence (P08684 whole entry): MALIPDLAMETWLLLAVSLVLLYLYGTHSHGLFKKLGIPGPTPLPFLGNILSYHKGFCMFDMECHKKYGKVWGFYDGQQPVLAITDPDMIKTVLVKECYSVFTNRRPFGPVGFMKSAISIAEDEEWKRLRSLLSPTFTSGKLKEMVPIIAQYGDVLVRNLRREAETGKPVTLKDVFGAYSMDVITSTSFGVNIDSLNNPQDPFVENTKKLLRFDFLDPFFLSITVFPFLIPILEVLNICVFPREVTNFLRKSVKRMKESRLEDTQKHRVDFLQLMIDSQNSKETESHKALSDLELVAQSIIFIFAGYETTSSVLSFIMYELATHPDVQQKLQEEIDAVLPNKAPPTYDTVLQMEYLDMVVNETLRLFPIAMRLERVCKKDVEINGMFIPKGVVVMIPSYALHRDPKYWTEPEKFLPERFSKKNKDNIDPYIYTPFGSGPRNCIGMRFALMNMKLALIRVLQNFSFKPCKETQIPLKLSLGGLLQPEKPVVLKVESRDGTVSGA
Large T antigen, sequence (P03070 whole entry): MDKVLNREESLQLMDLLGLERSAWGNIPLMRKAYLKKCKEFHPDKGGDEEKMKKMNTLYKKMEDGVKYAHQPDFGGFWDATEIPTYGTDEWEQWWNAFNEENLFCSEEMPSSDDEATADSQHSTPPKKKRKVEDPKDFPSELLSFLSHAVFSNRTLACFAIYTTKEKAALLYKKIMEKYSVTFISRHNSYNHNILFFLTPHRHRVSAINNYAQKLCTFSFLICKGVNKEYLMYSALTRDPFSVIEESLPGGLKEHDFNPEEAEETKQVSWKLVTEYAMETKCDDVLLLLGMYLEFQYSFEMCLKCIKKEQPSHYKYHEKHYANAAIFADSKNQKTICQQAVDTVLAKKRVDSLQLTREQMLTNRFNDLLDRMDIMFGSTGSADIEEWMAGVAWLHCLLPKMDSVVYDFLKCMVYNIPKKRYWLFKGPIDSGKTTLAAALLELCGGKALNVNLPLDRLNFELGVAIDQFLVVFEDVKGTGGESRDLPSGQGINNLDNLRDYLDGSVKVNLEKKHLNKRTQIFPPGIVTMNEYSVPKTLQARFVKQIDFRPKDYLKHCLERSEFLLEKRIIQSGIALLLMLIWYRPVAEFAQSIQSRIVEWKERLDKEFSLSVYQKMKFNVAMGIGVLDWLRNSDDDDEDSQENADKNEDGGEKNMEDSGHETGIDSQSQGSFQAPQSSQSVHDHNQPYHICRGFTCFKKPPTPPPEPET
Glucose-6-phosphate 1-dehydrogenase, sequence (P11413 whole entry): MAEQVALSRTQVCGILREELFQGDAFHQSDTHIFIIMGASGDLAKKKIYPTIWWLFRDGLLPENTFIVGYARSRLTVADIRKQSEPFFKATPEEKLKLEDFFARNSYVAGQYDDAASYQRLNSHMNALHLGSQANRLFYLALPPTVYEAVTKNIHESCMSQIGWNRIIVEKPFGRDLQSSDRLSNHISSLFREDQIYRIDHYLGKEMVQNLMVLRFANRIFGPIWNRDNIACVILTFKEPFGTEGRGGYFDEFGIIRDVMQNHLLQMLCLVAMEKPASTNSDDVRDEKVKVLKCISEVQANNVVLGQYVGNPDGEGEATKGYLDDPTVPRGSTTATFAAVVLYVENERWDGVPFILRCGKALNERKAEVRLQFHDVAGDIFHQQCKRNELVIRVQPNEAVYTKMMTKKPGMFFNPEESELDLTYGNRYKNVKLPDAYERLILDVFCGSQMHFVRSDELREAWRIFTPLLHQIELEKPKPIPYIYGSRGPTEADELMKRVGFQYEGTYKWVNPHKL

In the case of `O=C(COc1ccccc1/C=C\c1nc(O)c([N+](=O)[O-])c(O)n1)Nc1ccccc1`, the IC50 (usually the concentration that gives 50% inhibition) at Aminopeptidase N was 49 µM (active).
In the case of `O=C(O)c1cccc(N2C(=O)C=CC2=O)c1`, the values for the IC50 (in experiment [1]; at Genome polyprotein) were > 80 µM (inactive) and 76.9 µM (active), respectively.
Turning to `Cc1ccccc1C1C2=C(O)c3ccccc3C2=Nc2nn(-c3ccccc3)c(O)c21` (configuration not stated), the IC50 on Aminopeptidase N is 40.4 µM (active).
Take `CN1CCc2cc3c(cc2C(=O)Cc2ccc4c(c2C1)OCO4)OCO3`: at Cytochrome P450 3A4 [2], the AC50 (in general, the concentration giving half of the maximal activity seen) was 25.1 µM (inconclusive).
In the case of `CC(/C=C(\O)c1ccc(Br)cc1)=N/NC(=O)c1ccccc1`, the CC50 (usually the concentration giving 50% cytotoxicity) in experiment [3] was 22.2 µM (active).
As for `Cc1cc(C)cc(N(C(=O)c2snc(C(N)=O)c2N)C(C(=O)NCC2CCCO2)c2ccc(C)o2)c1` (configuration not stated), in experiment [4], the IC50 is > 20 µM (inactive).
Consider `O=C1NN(c2ccccc2)C(=O)/C1=C\c1ccccc1OCC(=O)N1CCOCC1`, for which the half-inhibitory concentration (IC50) on Genome polyprotein is > 100 µM (active).
With `O=C(N/N=C/c1cccnc1)c1cc(-c2ccccc2OCc2ccccc2)[nH]n1`, the IC50 is 53.1 µM (inactive) in experiment [5] and 31.2 µM (active) at Aminopeptidase N.
In the case of `NS(=O)(=O)c1ccc(N2N=C(c3ccccc3)CC2c2ccc(F)cc2)cc1` (configuration not stated), the concentration giving a half-maximal response (EC50) (usually the concentration needed to bring the measured effect to its halfway point) in [6] is 6.96 µM (active); with Streptococcus, 18.7 µM (active); on Streptokinase A, 55.2 µM (active). Besides, on Aminopeptidase N, the IC50 is 62 µM (active).
For `CC(NC(=O)c1ccc(F)cc1)c1ccc2c(c1)CCCC2` (configuration not stated), the IC50 in [7] was 20.9 µM (active).
As for `CC(C)OCCCNc1nc2c(-c3ccccc3)nnn2c2ccccc12`, in experiment [4], the IC50 is > 20 µM (inactive).
`O=C1/C(=C/C=C/c2ccccc2)Oc2c1ccc(O)c2CN1CCN(CCO)CC1`: the 50% cytotoxic concentration (CC50) in experiment [3] is > 40 µM (active). Further, the IC50 in the experiment “cells” is 23.3 µM (active).
`COc1ccc(/C=C2/SC(=S)N(CC(=O)O)C2=O)cc1OCc1ccc(Cl)cc1`: the half-maximal inhibitory concentration (IC50) at Genome polyprotein was > 100 µM (active).
For `CCCc1nc2sc3c(c2c(=O)n1NC(=O)c1ccco1)CC(C)(C)OC3`, the half-maximal inhibitory concentration (IC50) on Aminopeptidase N is 36.1 µM (active).
For `Cc1cnc(C)c(N2CCN(Cc3nc(-c4cccc(F)c4F)oc3C)CC2)n1`, the 50% inhibitory concentration (IC50) in experiment [7] is 15.1 µM (active).
As to `C=CC(=O)OCCCCCCOC(=O)C=C`, the half-maximal activity concentration (AC50) on Cytochrome P450 3A4 [2] was 25.1 µM (inconclusive).
As to `COC(=O)COc1ccc(-c2ccc(F)cc2)cc1C=O`, the IC50 in “cells” is 3.51 µM (active).
With `CCn1c(SCc2nc(-c3ccc(OC)c(OC)c3)no2)nnc1-c1cccs1`, the IC50 in [7] is 11.2 µM (active).
For `O=c1cc(-c2ccc(O)c(O)c2)oc2cc(O)cc(O)c12` [LUTEOLIN], the figures for the EC50 in experiment [8] and in experiment [9] were 60.4 µM (active) and 31 µM (active), respectively. Further, the half-inhibitory concentration (IC50) was 11.9 µM (active) on Large T antigen and 22.9 µM (active) on Aminopeptidase N. Further, at Cytochrome P450 3A4 [10], the half-maximal activity concentration (AC50) is 5.01 µM (inconclusive).
As to `Cc1ncc(CN2CC=C(c3ccccc3)CC2)c(N)n1`, the AC50 on Cytochrome P450 3A4 [2] is 25.1 µM (inconclusive).
Regarding `Cc1nc(C)c(/C(O)=C/c2nc3ccccc3oc2=O)s1`, the CC50 in experiment [3] was > 40 µM (active). For the same compound, the half-maximal inhibitory concentration (IC50) in the experiment “cells” is 3.09 µM (active).

These data come from ChEMBL document CHEMBL1201862, “PubChem BioAssay data set” (2004).
